Measurements as given in PubChem BioAssay AID248 (DTP/NCI, 2004).
Where “and” joins values, the source holds several entries; their conditions need not be identical. Identical values can stand only once. Toxic doses and inconclusive results are not listed. No stated cut-off is given here; in the data, active means T/C of 150% or more; inactive means T/C below 125%.

Tested on: L1210 leukemia ip in BDF1 mice, survival T/C
Experiment: NCI In Vivo Anticancer Drug Screen. Data for tumor model L1210 Leukemia (intraperitoneal) in B6D2F1 (BDF1) mice
Conditions: endpoint: mean survival time, higher = longer survival
Method in brief: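 Transplantable tumor model; survival measured in treated vs vehicle control mice. Value = treated/control.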

[1] = dose: 100.0 mg/kg/injection, schedule: Q01DX009 (ip), vehicle: Klucel (hydroxypropylcellulose) (HPC)
[2] = dose: 100.0 mg/kg/injection, schedule: Q04DX003 (ip), vehicle: Klucel (hydroxypropylcellulose) (HPC)
[3] = dose: 200.0 mg/kg/injection, schedule: Q01DX009 (ip), vehicle: Klucel (hydroxypropylcellulose) (HPC)
[4] = dose: 200.0 mg/kg/injection, schedule: Q04DX003 (ip), vehicle: Klucel (hydroxypropylcellulose) (HPC)
[5] = dose: 400.0 mg/kg/injection, schedule: Q01DX009 (ip), vehicle: Klucel (hydroxypropylcellulose) (HPC)
[6] = dose: 400.0 mg/kg/injection, schedule: Q04DX003 (ip), vehicle: Klucel (hydroxypropylcellulose) (HPC)
[7] = dose: 100.0 mg/kg/injection, schedule: Q01DX001 (ip), vehicle: Klucel (hydroxypropylcellulose) (HPC)
[8] = dose: 200.0 mg/kg/injection, schedule: Q01DX001 (ip), vehicle: Klucel (hydroxypropylcellulose) (HPC)
[9] = dose: 100.0 mg/kg/injection, schedule: Q04DX002 (ip), vehicle: Klucel (hydroxypropylcellulose) (HPC)
[10] = dose: 100.0 mg/kg/injection, schedule: Q01DX001 (ip), vehicle: saline
[11] = dose: 100.0 mg/kg/injection, schedule: Q04DX003 (ip), vehicle: saline
[12] = dose: 200.0 mg/kg/injection, schedule: Q01DX001 (ip), vehicle: saline
[13] = dose: 200.0 mg/kg/injection, schedule: Q04DX003 (ip), vehicle: saline
[14] = dose: 400.0 mg/kg/injection, schedule: Q01DX001 (ip), vehicle: saline
[15] = dose: 400.0 mg/kg/injection, schedule: Q04DX003 (ip), vehicle: saline
[16] = dose: 50.0 mg/kg/injection, schedule: Q01DX001 (ip), vehicle: saline
[17] = dose: 50.0 mg/kg/injection, schedule: Q04DX003 (ip), vehicle: Klucel (hydroxypropylcellulose) (HPC)
[18] = dose: 100.0 mg/kg/injection, schedule: Q04DX002 (ip), vehicle: saline with Tween-80
[19] = dose: 100.0 mg/kg/injection, schedule: Q01DX001 (ip), vehicle: carboxymethylcellulose (CMC)
[20] = dose: 200.0 mg/kg/injection, schedule: Q01DX001 (ip), vehicle: carboxymethylcellulose (CMC)
[21] = dose: 400.0 mg/kg/injection, schedule: Q01DX001 (ip), vehicle: carboxymethylcellulose (CMC)
[22] = dose: 100.0 mg/kg/injection, schedule: Q01DX009 (ip), vehicle: saline
[23] = dose: 200.0 mg/kg/injection, schedule: Q01DX009 (ip), vehicle: saline
[24] = dose: 400.0 mg/kg/injection, schedule: Q01DX009 (ip), vehicle: saline

Measured: T/C

Cc1ccc(Cl)cc1NC(=O)c1ccccc1C(=O)O
inactive: [1] 102 % of control | [2] 102 % of control | [3] 97 % of control | [4] 101 % of control | [5] 96 % of control | [6] 102 % of control

CCCCCCCCOC(=O)CCC(N)C(=O)O (configuration not stated)
inactive: [7] 107 % of control | [1] 93 % of control | [8] 102 % of control | [3] 97 % of control | dose: 400.0 mg/kg/injection, schedule: Q01DX001 (ip), vehicle: Klucel (hydroxypropylcellulose) (HPC) 98 % of control | [5] 97 % of control

CN(C)CCC(c1ccccc1)c1nc(N)nc(C(CCN(C)C)c2ccccc2)n1 (configuration not stated)
inactive: dose: 50.0 mg/kg/injection, schedule: Q04DX002 (ip), vehicle: Klucel (hydroxypropylcellulose) (HPC) 102 % of control | [1] 115 % of control | [9] 105 % of control

Cc1ccc(C(=O)C(F)(F)C(F)(F)C(F)(F)C(F)(F)C(F)(F)C(F)(F)C(F)(F)F)cc1
inactive: [10] 105 % of control | [11] 93 % of control | [12] 102 % of control | [13] 95 % of control | [14] 103 % of control | [15] 92 % of control

O/N=C(/CBr)c1ccccc1
inactive: dose: 12.5 mg/kg/injection, schedule: Q04DX002 (ip), vehicle: gum acacia 109 % of control | dose: 25.0 mg/kg/injection, schedule: Q04DX002 (ip), vehicle: gum acacia 87 % of control | dose: 50.0 mg/kg/injection, schedule: Q04DX002 (ip), vehicle: gum acacia 102 % of control

NC(CSSCC(NC(=O)C(F)(F)F)C(=O)O)C(=O)O (configuration not stated)
inactive: [16] 96 % of control | [10] 98 % of control | [12] 93 % of control

CCOC(=O)C1C2OC(=O)C(C(=O)C2CN(CCCl)CCCl)C1c1ccc(OC(C)=O)cc1 (configuration not stated)
inactive: [17] 93 % of control | [2] 101 % of control | [4] 103 % of control | [6] 97 % of control

CCCCCCCCN(C=O)CCCCCCCC
inactive: [18] 98 % of control

COc1ccccc1N=Nc1c(O)n(-c2ccc(C)cc2)c(=S)n(-c2ccc(C)cc2)c1=O
inactive: dose: 50.0 mg/kg/injection, schedule: Q01DX001 (ip), vehicle: Klucel (hydroxypropylcellulose) (HPC) 86 % of control | [7] 89 % of control | [8] 102 % of control

O=C(c1ccccc1)C(Nc1ccc(Br)cc1)Nc1ccc(Br)cc1
inactive: [19] 96 % of control | [20] 102 % of control | [21] 96 % of control

Nc1nnc(Sc2n[nH]c(=O)[nH]c2=O)s1
inactive: [19] 98 % of control | [20] 102 % of control | [21] 105 % of control

O=C(NC(CS)C(=O)O)OCc1ccccc1 (configuration not stated)
inactive: dose: 25.0 mg/kg/injection, schedule: Q04DX003 (ip), vehicle: Klucel (hydroxypropylcellulose) (HPC) 97 % of control | dose: 50.0 mg/kg/injection, schedule: Q01DX009 (ip), vehicle: Klucel (hydroxypropylcellulose) (HPC) 101 % of control | [17] 98 % of control | [1] 101 % of control | [2] 106 % of control and 113 % of control | [3] 98 % of control

CCc1c(Nc2ccc(Cl)c(Cl)c2)[nH]c(N)nc1=S
inactive: dose: 100.0 mg/kg/injection, schedule: Q01DX Z (ip), vehicle: methylcellulose (MC) 90 % of control | dose: 200.0 mg/kg/injection, schedule: Q01DX Z (ip), vehicle: methylcellulose (MC) 105 % of control

COc1ccc(C2(C)OC(=O)c3ccccc32)c2ccccc12 (configuration not stated)
inactive: dose: 100.0 mg/kg/injection, schedule: Q01DX001 (ip), vehicle: saline with Tween-80 94 % of control | dose: 200.0 mg/kg/injection, schedule: Q01DX001 (ip), vehicle: saline with Tween-80 100 % of control | dose: 400.0 mg/kg/injection, schedule: Q01DX001 (ip), vehicle: saline with Tween-80 87 % of control

CSc1nc(Cl)c2ncn(C3C=CC(O)C(CO)O3)c2n1 (configuration not stated)
inactive: dose: 100.0 mg/kg/injection, schedule: Q01DX005 (ip), vehicle: saline 95 % of control | dose: 200.0 mg/kg/injection, schedule: Q01DX005 (ip), vehicle: saline 92 % of control

CCCCCCCCc1nc2c([nH]1)c(=O)n(C)c(=O)n2C
inactive: [16] 87 % of control | [10] 90 % of control | [12] 90 % of control | [14] 102 % of control

O=C1C2CCN(CC2)C1Cn1cnc2c(Cl)ncnc21 (configuration not stated)
inactive: [7] 95 % of control | [8] 98 % of control

COC1(OC)C2(Cl)C=CC1(Cl)C1CC12 (configuration not stated)
inactive: [9] 97 % of control | dose: 200.0 mg/kg/injection, schedule: Q04DX002 (ip), vehicle: Klucel (hydroxypropylcellulose) (HPC) 107 % of control | dose: 400.0 mg/kg/injection, schedule: Q04DX002 (ip), vehicle: Klucel (hydroxypropylcellulose) (HPC) 100 % of control

[O]=[Sn]1[O][Bi]([O][Sn](=[O])[O][Bi]2[O][Sn](=[O])[O]2)[O]1
inactive: [22] 94 % of control | [23] 94 % of control | [24] 92 % of control

O=C1CCCO1
inactive: [11] 92 % of control | [13] 100 % of control | [15] 94 % of control

CN(C)c1ccc2c(c1)C(Br)c1ccccc1-2 (configuration not stated)
inactive: [1] 106 % of control | [2] 94 % of control | [3] 107 % of control | [4] 96 % of control | [6] 97 % of control

Cc1ccc(S(=O)(=O)Oc2cc([N+](=O)[O-])ccc2N)cc1
inactive: [22] 103 % of control | [23] 105 % of control | [24] 100 % of control

Nc1ncnc2c1ncn2CCCN1C(=O)c2ccccc2C1=O
inactive: dose: 100.0 mg/kg/injection, schedule: Q04DX003 (ip), vehicle: saline with Tween-80 96 % of control | dose: 200.0 mg/kg/injection, schedule: Q04DX003 (ip), vehicle: saline with Tween-80 93 % of control | dose: 400.0 mg/kg/injection, schedule: Q04DX003 (ip), vehicle: saline with Tween-80 89 % of control

COc1ccccc1OC(=O)c1ccccc1O
inactive: [10] 107 % of control | [11] 90 % of control | [12] 100 % of control | [13] 90 % of control | [14] 94 % of control | [15] 88 % of control

O=C(O)CSC(=S)c1ccccc1
inactive: dose: 25.0 mg/kg/injection, schedule: Q04DX002 (ip), vehicle: saline with Tween-80 103 % of control | dose: 50.0 mg/kg/injection, schedule: Q04DX002 (ip), vehicle: saline with Tween-80 103 % of control | [17] 108 % of control | dose: 100.0 mg/kg/injection, schedule: Q01DX009 (ip), vehicle: saline with Tween-80 93 % of control | [18] 118 % of control | [2] 97 % of control | [11] 97 % of control | dose: 200.0 mg/kg/injection, schedule: Q01DX009 (ip), vehicle: saline with Tween-80 93 % of control | [4] 105 % of control | [13] 100 % of control | [15] 97 % of control
